The values that follow come from US20090048203A1, “SUBSTITUTED ADENINES AND THE USES THEREOF” (priority 2004, published 2009).

Converted amounts (≈) assume the structure as drawn.

In general, IC50 refers to the concentration needed to halve the response being measured.

Chain of S. pneumoniae LigA (Q97QT2 whole entry): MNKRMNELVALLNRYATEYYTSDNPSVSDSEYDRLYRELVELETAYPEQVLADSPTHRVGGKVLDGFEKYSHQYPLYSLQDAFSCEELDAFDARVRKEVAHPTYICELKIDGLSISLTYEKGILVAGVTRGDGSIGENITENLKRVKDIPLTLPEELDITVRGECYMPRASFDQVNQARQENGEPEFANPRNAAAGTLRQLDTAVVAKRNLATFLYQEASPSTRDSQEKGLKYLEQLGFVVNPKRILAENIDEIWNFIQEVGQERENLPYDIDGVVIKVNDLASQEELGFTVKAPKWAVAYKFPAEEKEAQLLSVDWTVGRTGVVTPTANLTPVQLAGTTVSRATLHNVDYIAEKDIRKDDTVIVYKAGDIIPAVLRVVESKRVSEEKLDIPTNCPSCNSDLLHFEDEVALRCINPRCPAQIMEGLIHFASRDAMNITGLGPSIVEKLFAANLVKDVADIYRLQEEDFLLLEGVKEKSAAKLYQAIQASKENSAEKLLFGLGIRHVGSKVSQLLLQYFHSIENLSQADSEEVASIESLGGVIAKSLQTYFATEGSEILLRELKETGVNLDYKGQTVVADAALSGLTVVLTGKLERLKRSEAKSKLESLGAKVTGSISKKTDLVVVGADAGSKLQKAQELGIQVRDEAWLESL

One experiment concerns the target S. pneumoniae LigA (Streptococcus pneumoniae serotype 4, UniProt Q97QT2). As to the kind of experiment: DNA ligase inhibition, FRET detection assay. It counts as biochemical. The conditions noted are these: ten compound concentrations; read-out: IC50 (μM) against S. pneumoniae LigA. On the procedure:
Compounds were tested for inhibition of DNA ligase using a Fluorescence Resonance Energy Transfer (FRET) detection assay as previously described (Chen et al. 2002. Analytical Biochemistry 309: 232-240; Benson et al. 2004. Analytical Biochemistry 324:298-300). Assays were performed in 384-well polystyrene flat-bottom black plates in 30 μl reactions containing 3 μl compound dissolved in dimethylsulfoxide, 20 μl 1.5× Enzyme Working Solution (25% glycerol, 45 mM potassium chloride, 45 mM ammonium sulfate, 15 mM dithiothreitol, 1.5 mM ethylenediaminetetraacetic acid (EDTA), 0.003% Brij 35, 75 mM MOPS pH 7.5, 150 nM bovine serum albumin, 1.5 μM NAD^+, 60 nM DNA substrate, 0.375 nM enzyme in water) and 7 μl […] magnesium chlorine solution (96 mM magnesium chloride, 20% glycerol in water) to initiate the reaction. The DNA substrate is similar to that described in Benson et al. (2004. Analytical Biochemistry 324:298-300). The assay reactions were incubated at room temperature for approximately 20 minutes before being terminated by the addition of 30 μl Quench reagent (8 M Urea, 1 M Trizma base, 20 mM EDTA in water). Plates were read in a Tecan Ultra plate reader at two separate wavelengths—Read 1: excitation 485, emission 535, Read 2: excitation 485, emission 595. Data is initially expressed as a ratio of the 595/535 emission values and percent inhibition values were calculated using […] dimethylsulfoxide (no compound) as the 0% inhibition and EDTA-containing (50 mM) reactions as 100% inhibition controls. Compound potency was based on IC50 measurements determined from reactions performed in the presence of ten different compound concentrations.
Consider `Nc1nc(SCc2ccco2)nc2c1ncn2C1CCCO1` (stereo not shown) [Example 6, 2-[(2-furylmethyl)thio]-9-(tetrahydrofuran-2-yl)-9H-purin-6-amine], for which the IC50 was 1.8 µM.
With `Nc1nc(OC2CCCC2)nc2c1ncn2C1OCCC1N` (stereo not shown) [Example 128, 9-(3-aminotetrahydrofuran-2-yl)-2-(cyclopentyloxy)-9H-purin-6-amine], the IC50 came to 0.7 µM.
The same measure, in the same setting: with `C=C[C@H]1O[C@@H](n2cnc3c(N)nc(OC4CCCC4)nc32)[C@H](O)[C@@H]1O` [Example 259, 2-(cyclopentyloxy)-9-(5,6-dideoxy-β-D-ribo-hex-5-enofuranosyl)-9H-purin-6-amine] the figure was 0.5 µM; with `Nc1nc(OCC2CCCC2)nc2c1ncn2[C@@H]1O[C@H](CO)[C@@H](O)[C@H]1O` [Example 172, 2-(Cyclopentyl)methoxy-9-β-D-ribofuranosyl-9H-purine-6-amine], 0.145 µM.
On the same count and under the same terms, with `Nc1nc(OCc2ccccc2)nc2c1ncn2C1CCCO1` (stereo not shown) [Example 25, 2-(benzyloxy)-9-(tetrahydrofuran-2-yl)-9H-purin-6-amine] the figure was 4 µM.

In the next experiment the test system is S. pneumoniae. As to the kind of experiment: Bacterial susceptibility testing, microbroth dilution (MIC). The conditions noted are these: Streptococcus pneumoniae; lowest drug concentration able to reduce growth by 80% or more; read-out: MIC (μg/ml) against S. pneumoniae. The experiment is classed as cell-based. On the procedure: Compounds were tested for antimicrobial activity by susceptibility testing using microbroth dilution methods recommended by NCCLS. Compounds were dissolved in dimethylsulfoxide and tested in 10 doubling dilutions in the susceptibility assays such that the final dimethylsulfoxide concentration in the assay was 2% (v/v). The organisms used in the assay were grown overnight on appropriate agar media and then suspended in the NCCLS-recommended liquid susceptibility-testing media. The turbidity of each suspension was adjusted to be equal to a 0.5 McFarland standard, a further 1-in-10 dilution was made into the same liquid medium to prepare the final organism suspension, and 100 μL of this suspension was added to each well of a microtiter plate containing compound dissolved in 2 μL of dimethylsulfoxide. Plates were incubated under appropriate conditions of atmosphere and temperature and for times according to NCCLS standard methods prior to being read. The Minimum Inhibitory Concentration (MIC) was determined as the lowest drug concentration able to reduce growth by 80% or more.
On to `Nc1nc(OC2CCCC2)nc2c1ncn2[C@@H]1O[C@H](COCCO)[C@@H](O)[C@H]1O` [Example 129, 2-(cyclopentyloxy)-9-[5-O-(2-hydroxyethyl)-β-D-ribofuranosyl]-9H-purin-6-amine], for which the MIC stood at 8 µg/mL (≈ 20.2 µM).
Same read-out and setting: with `Nc1nc(OCC2CCCC2)nc2c1ncn2[C@@H]1O[C@H](CO)[C@@H](O)[C@H]1O` [Example 172, 2-(Cyclopentyl)methoxy-9-β-D-ribofuranosyl-9H-purine-6-amine] the figure was 2 µg/mL (≈ 5.47 µM); with `Nc1nc(OC2CCCCC2)nc2c1ncn2C1CCCO1` (stereo not shown) [Example 27, 2-(cyclohexyloxy)-9-(tetrahydrofuran-2-yl)-9H-purin-6-amine], 8 µg/mL (≈ 26.4 µM).
The same measure, in the same setting: then `COc1cccc(CO[C@H]2[C@@H](O)[C@H](n3cnc4c(N)nc(OC5CCCC5)nc43)O[C@@H]2C)c1` [Example 356], with 4 µg/mL (≈ 8.78 µM); and `Nc1nc(OC2CCC3CCCCC3C2)nc2c1ncn2C1CCCO1` (stereo not shown) [Example 62, 2-(decahydronaphthalen-2-yloxy)-9-(tetrahydrofuran-2-yl)-9H-purin-6-amine], with 4 µg/mL (≈ 11.2 µM).
